Source: patent US12558312B2, “Solid dosage form for transmucosal drug delivery” (Primo Pharmatech LLC, priority 2020, dated 2026)
Where a name gives a salt, the structure may show the parent alone.

Test: In-vitro permeation testing with a Franz Cell Diffusion System
Method: In-vitro Permeation testing was performed for the dosage forms in Table 8 with a Franz Cell Diffusion System. The receiving chamber was filled in water solution and stirred with magnetic bar. Fix the PermeaPad® Barrier membrane at the surface. The PermeaPad® Barrier consists of two cellulose membranes and in between there is a Lipid layer Lecithine (S-100). Place the donating chamber onto the receiving chamber and effectively sandwich the membrane. Add 5 mg of the film prepared in Table 8 into the donating chamber and introduce 1 ml of water to dissolve the film. Start the timer for the experiment.
Permeability (P, cm/h), in general within first 8 hours, is defined as the rate of flow of liquid through the membrane.
The similar procedure was performed for the other APIs with a molecule weight ranging from 100 to 6000 g/mol.

Pemeability (cm/h) via PermeaPad Biomimetic Membrane in vitro (HLB9.0) | Compound | Pemeability (cm/h) via PermeaPad Biomimetic Membrane in vitro (enhancer condition not stated) | Pemeability (cm/h) via PermeaPad Biomimetic Membrane in vitro (HLB9.4) | Pemeability (cm/h) via PermeaPad Biomimetic Membrane in vitro (HLB15) [cm/h] | Pemeability (cm/h) via PermeaPad Biomimetic Membrane in vitro (no enhancers) | Pemeability (cm/h) via PermeaPad Biomimetic Membrane in vitro (HLB4.3)
– | CC[C@H](C)[C@H](NC(=O)[C@H](CCC(=O)O)NC(=O)[C@H](CCC(=O)O)NC(=O)[C@H](Cc1ccccc1)NC(=O)[C@H](CC(=O)O)NC(=O)CNC(=O)[C@H](CC(N)=O)NC(=O)CNC(=O)CNC(=O)CNC(=O)CNC(=O)[C@@H]1CCCN1C(=O)[C@H](CCCNC(=N)N)NC(=O)[C@@H]1CCCN1C(=O)[C@H](N)Cc1ccccc1)C(=O)N1CCC[C@H]1C(=O)N[C@@H](CCC(=O)O)C(=O)N[C@@H](CCC(=O)O)C(=O)N[C@@H](Cc1ccc(O)cc1)C(=O)N[C@@H](CC(C)C)C(=O)O [Bivalirudin Peptide, Bivalirudin] | Un-detectable | – | – | – | –
– | Cn1c(=O)c2c(ncn2C)n(C)c1=O [Caffeine] | – | (HLB15), 7.76 (HLB9.4) cm/h | 5.01 | 0.277 cm/h | –
(HLB15), 2.73 (HLB9.0) cm/h | CN1CCc2cccc3c2[C@H]1Cc1ccc(O)c(O)c1-3 [Apomorphine HCL] | – | – | 1.87 | 0.413 cm/h | –
– | Insulin | Un-detectable | – | – | – | –
– | NC(=O)c1ccc[n+]([C@@H]2O[C@H](COP(=O)([O-])O)[C@@H](O)[C@H]2O)c1 [Beta-nicotinamide mononucleotide, NMN, Beta-nicotinamide mononucleotide] | – | 0.38 (HLB9.4) cm/h | – | 0.23 (No enhancers), cm/h | 0.23 (HLB4.3), cm/h
